Results: PMC5522071, “Preclinical development of G1T38: A novel, potent and selective inhibitor of cyclin dependent kinases 4/6 for use as an oral antineoplastic in patients with CDK4/6 sensitive tumors” (Oncotarget, 2017)

Key:
ULK2 = target: T1, ULK2 (Homo sapiens, UniProt Q8IYT8); assay: KdELECT Kd determination (DiscoveRx); type: binding; conditions: duplicate 11-point dose-response curves
T1 construct: purchased DiscoveRx (KdELECT service)
Description: (§1) G1T38 was profiled at DiscoveRx (Fremont, CA) using their KINOMEscan and scanMAX screening technology.
(§2) Supplementary Table 1: G1T38 Kinase Interactions
(§3) primary screen. Inhibitor binding constants (Kd values) were calculated from duplicate 11-point dose-response curves for
(§4) (1 picture or pasted object on this page, not shown here)

TTK = target: T2, TTK (Homo sapiens, UniProt P33981); assay: KdELECT Kd determination (DiscoveRx); type: binding; conditions: duplicate 11-point dose-response curves
T2 construct: purchased DiscoveRx (KdELECT service)
Description: as §1, §2, §3, §4

SNARK = target: T3, SNARK (Homo sapiens, UniProt Q9H093); assay: KdELECT Kd determination (DiscoveRx); type: binding; conditions: duplicate 11-point dose-response curves
T3 construct: purchased DiscoveRx (KdELECT service)
Description: as §1, §2, §3, §4

CDK4/ CyclinD3 = target: T4, CDK4/ CyclinD3 (Homo sapiens, UniProt P11802); assay: KdELECT Kd determination (DiscoveRx); type: binding; conditions: duplicate 11-point dose-response curves
T4 construct: purchased DiscoveRx (KdELECT service)
Description: as §1, §2, §3, §4

CDK4/ CyclinD1 = target: T5, CDK4/ CyclinD1 (Homo sapiens, UniProt P11802); assay: KdELECT Kd determination (DiscoveRx); type: binding; conditions: duplicate 11-point dose-response curves
T5 construct: purchased DiscoveRx (KdELECT service)
Description: as §1, §2, §3, §4

PRKD3 = target: T6, PRKD3 (Homo sapiens, UniProt O94806); assay: KdELECT Kd determination (DiscoveRx); type: binding; conditions: duplicate 11-point dose-response curves
T6 construct: purchased DiscoveRx (KdELECT service)
Description: as §1, §2, §3, §4

SLK = target: T7, SLK (Homo sapiens, UniProt Q9H2G2); assay: KdELECT Kd determination (DiscoveRx); type: binding; conditions: duplicate 11-point dose-response curves
T7 construct: purchased DiscoveRx (KdELECT service)
Description: as §1, §2, §3, §4

NEK10 = target: T8, NEK10 (Homo sapiens, UniProt Q6ZWH5); assay: KdELECT Kd determination (DiscoveRx); type: binding; conditions: duplicate 11-point dose-response curves
T8 construct: purchased DiscoveRx (KdELECT service)
Description: as §1, §2, §3, §4

PRKD2 = target: T9, PRKD2 (Homo sapiens, UniProt Q9BZL6); assay: KdELECT Kd determination (DiscoveRx); type: binding; conditions: duplicate 11-point dose-response curves
T9 construct: purchased DiscoveRx (KdELECT service)
Description: as §1, §2, §3, §4

FLT3 (D835V) = target: T10, FLT3 (D835V) (Homo sapiens, UniProt P36888, D835V); assay: KdELECT Kd determination (DiscoveRx); type: binding; conditions: duplicate 11-point dose-response curves
T10 construct: purchased DiscoveRx (KdELECT service)
Description: as §1, §2, §3, §4

WM2664 = assay: Cell proliferation, CellTiter-Glo; type: cell-based; conditions: Homo sapiens, WM 266-4, 144 h; WM2664, Melanoma, RB +; four or six days; read-out: G1T38 EC50, growth inhibition
Description: (§5) To assess the capacity of G1T38 to inhibit proliferation of tumor cell lines, a broad panel of CDK4/6 dependent and independent lines was evaluated using CellTiter Glo (Table 2).
(§6) SupT1, Daudi, MCF7, ZR-75-1, A2058, WM2664, and H69 cells were seeded at 1000 cells per well; MV-4-11 and BV173 cells were plated at 4000 cells per well; Tom-1 cells were plated at 8,000 cells per well; NALM-1 cells were plated at 20,000 cells per well in Costar 3903 96 well plates. After 24 hours, plates were dosed with G1T38 at a nine-point dose concentration from 10 μM to 1 nM. Cell viability was determined after four or six days using the CellTiter-Glo® assay (Promega; Madison, WI) following manufacturer's recommendations. Plates were processed on BioTek (Winooski, VT) Synergy2 multi-mode plate reader and data analyzed using GraphPad (San Diego, CA) Prism 5 statistical software.

H69 = assay: Cell proliferation, CellTiter-Glo; type: cell-based; conditions: Homo sapiens, NCI-H69, 144 h; H69, SCLC, RB -; four or six days; read-out: G1T38 EC50, growth inhibition
Description: as §5, §6

SupT1 = assay: Cell proliferation, CellTiter-Glo; type: cell-based; conditions: Homo sapiens, SUP-T1, 144 h; SupT1, Lymphoma, RB +; four or six days; read-out: G1T38 EC50, growth inhibition
Description: as §5, §6

Tom1 = assay: Cell proliferation, CellTiter-Glo; type: cell-based; conditions: 144 h; Tom1, Ph1+ leukemia, RB +; four or six days; read-out: G1T38 EC50, growth inhibition
Description: as §5, §6

NALM1 = assay: Cell proliferation, CellTiter-Glo; type: cell-based; conditions: 144 h; NALM1, Leukemia, RB -; four or six days; read-out: G1T38 EC50, growth inhibition
Description: as §5, §6

ZR-75-1 = assay: Cell proliferation, CellTiter-Glo; type: cell-based; conditions: Homo sapiens, 144 h; ZR-75-1, ER+ breast cancer, RB +; four or six days; read-out: G1T38 EC50, growth inhibition
Description: as §5, §6

A2058 = assay: Cell proliferation, CellTiter-Glo; type: cell-based; conditions: Homo sapiens, 144 h; A2058, Melanoma, RB -; four or six days; read-out: G1T38 EC50, growth inhibition
Description: as §5, §6

BV173 = assay: Cell proliferation, CellTiter-Glo; type: cell-based; conditions: Homo sapiens, BV-173, 144 h; BV173, Ph1+ leukemia, RB +; four or six days; read-out: G1T38 EC50, growth inhibition
Description: as §5, §6

Daudi = assay: Cell proliferation, CellTiter-Glo; type: cell-based; conditions: Homo sapiens, 144 h, Lymphoma, RB +, four or six days, read-out: G1T38 EC50, growth inhibition
Description: as §5, §6

MCF7 = assay: Cell proliferation, CellTiter-Glo; type: cell-based; conditions: Homo sapiens, 144 h; MCF7, ER+ breast cancer, RB +; four or six days; read-out: G1T38 EC50, growth inhibition
Description: as §5, §6

MV4-11 = assay: Cell proliferation, CellTiter-Glo; type: cell-based; conditions: Homo sapiens, 144 h; MV4-11, B cell leukemia, RB +; four or six days; read-out: G1T38 EC50, growth inhibition
Description: as §5, §6

[1] = 28-day repeat-dose GLP toxicity study; type: in vivo; conditions: dog
H1975 xenograft = assay: H1975 NSCLC xenograft model; type: in vivo, mice; conditions: for TGI: single agent, by 18 days of treatment
From the text: To evaluate the efficacy of G1T38 in combination with EGFR inhibitors, the H1975 xenograft model was utilized. H1975 is a human NSCLC that harbors the […] mutations rendering resistance to erlotinib treatment.
Afatinib is an irreversible second generation pan-ErbB inhibitor developed as a first-line treatment of patients with metastatic NSCLC whose tumors harbor EGFR mutations or deletions as well as in patients with metastatic disease that progressed after platinum-based chemotherapy.
Female NCI Ath/nu mice were implanted with H1975 NSC lung adenocarcinoma model. Once tumors reached an average size of 100- 150 mm^3, mice were randomized into treatment cohorts. Mice were orally administered daily afatinib (20 mg/kg, Genentech/OSI), erlotinib (70 mg/kg, LC Labs), or G1T38 (50 or 100 mg/kg), as single agents or in combination (G1T38 + erlotinib or G1T38 + afatinib) for the duration of the study. Tumors were measured twice weekly until mice reached tumor burden of 1500 mm^3.

T5 sequence (P11802 whole entry): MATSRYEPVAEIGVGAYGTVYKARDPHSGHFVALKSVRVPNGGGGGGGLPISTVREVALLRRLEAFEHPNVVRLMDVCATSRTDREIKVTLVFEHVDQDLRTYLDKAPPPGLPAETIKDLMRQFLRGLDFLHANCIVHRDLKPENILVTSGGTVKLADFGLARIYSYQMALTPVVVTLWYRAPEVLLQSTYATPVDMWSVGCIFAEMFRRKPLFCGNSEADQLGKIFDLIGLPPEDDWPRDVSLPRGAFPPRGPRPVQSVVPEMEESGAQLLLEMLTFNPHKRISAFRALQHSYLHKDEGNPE
T5 sequence (P24385 whole entry partner): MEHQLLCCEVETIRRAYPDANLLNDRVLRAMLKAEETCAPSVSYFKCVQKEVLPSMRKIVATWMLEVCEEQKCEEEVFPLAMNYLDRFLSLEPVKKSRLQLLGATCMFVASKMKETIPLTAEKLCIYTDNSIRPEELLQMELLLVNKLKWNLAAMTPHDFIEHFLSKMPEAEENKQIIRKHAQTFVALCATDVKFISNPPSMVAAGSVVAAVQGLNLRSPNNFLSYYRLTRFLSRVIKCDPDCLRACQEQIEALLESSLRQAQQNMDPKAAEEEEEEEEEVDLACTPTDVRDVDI
T4 sequence (P11802 whole entry): as the sequence (P11802 whole entry) above
T4 sequence (P30281 whole entry partner): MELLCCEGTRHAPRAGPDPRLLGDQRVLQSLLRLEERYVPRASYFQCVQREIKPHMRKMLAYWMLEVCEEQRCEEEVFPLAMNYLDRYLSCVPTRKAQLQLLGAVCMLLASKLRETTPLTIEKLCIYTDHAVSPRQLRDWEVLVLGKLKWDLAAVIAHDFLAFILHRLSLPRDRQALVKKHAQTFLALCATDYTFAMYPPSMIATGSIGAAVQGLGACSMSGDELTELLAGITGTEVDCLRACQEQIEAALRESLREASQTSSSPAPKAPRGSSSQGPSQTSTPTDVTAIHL
T3 sequence (Q9H093 whole entry): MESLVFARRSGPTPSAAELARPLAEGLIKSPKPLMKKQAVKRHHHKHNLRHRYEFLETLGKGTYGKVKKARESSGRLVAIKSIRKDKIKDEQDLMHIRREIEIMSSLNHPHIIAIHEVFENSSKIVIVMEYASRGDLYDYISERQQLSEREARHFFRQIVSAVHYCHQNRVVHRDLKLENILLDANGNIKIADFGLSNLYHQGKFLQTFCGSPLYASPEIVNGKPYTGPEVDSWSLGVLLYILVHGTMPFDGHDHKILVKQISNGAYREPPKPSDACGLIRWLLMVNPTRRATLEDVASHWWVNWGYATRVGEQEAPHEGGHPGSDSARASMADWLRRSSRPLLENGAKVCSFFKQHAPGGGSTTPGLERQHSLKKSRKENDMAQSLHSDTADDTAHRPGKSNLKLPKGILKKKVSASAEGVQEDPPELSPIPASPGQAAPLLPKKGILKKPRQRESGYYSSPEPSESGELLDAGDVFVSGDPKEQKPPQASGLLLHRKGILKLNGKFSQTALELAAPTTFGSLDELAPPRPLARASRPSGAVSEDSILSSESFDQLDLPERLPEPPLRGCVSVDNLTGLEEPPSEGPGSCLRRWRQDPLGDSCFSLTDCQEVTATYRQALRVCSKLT
T8 sequence (Q6ZWH5 whole entry): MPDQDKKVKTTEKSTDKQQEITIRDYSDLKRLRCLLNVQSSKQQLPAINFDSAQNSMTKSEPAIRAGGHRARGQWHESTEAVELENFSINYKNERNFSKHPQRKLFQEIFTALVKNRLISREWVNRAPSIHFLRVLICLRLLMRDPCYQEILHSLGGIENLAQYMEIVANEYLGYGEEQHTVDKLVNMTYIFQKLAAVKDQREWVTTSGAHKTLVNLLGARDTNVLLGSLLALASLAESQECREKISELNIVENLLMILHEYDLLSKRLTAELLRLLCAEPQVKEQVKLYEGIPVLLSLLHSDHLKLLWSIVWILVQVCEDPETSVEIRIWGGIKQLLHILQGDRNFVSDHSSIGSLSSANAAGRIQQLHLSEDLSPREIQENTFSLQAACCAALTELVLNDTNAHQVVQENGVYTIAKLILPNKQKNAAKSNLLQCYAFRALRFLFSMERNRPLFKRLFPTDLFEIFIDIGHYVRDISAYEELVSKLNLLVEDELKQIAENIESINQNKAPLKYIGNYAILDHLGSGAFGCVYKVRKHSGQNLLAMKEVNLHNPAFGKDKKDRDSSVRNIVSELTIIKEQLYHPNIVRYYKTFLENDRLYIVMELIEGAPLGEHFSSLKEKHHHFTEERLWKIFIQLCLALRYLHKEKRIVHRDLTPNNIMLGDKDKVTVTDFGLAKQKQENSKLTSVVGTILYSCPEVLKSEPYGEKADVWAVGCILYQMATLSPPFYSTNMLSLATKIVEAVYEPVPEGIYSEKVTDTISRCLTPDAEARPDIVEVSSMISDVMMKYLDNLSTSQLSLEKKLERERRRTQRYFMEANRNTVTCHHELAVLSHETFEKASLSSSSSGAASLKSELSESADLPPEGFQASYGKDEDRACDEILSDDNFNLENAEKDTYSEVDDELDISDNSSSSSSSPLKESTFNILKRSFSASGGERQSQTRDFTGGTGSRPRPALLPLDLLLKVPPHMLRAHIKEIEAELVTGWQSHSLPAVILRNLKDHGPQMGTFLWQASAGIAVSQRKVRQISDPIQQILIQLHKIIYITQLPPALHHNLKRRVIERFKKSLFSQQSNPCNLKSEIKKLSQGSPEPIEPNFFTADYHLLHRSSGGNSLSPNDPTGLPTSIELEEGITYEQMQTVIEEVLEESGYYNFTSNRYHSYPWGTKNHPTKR
T1 sequence (Q8IYT8 whole entry): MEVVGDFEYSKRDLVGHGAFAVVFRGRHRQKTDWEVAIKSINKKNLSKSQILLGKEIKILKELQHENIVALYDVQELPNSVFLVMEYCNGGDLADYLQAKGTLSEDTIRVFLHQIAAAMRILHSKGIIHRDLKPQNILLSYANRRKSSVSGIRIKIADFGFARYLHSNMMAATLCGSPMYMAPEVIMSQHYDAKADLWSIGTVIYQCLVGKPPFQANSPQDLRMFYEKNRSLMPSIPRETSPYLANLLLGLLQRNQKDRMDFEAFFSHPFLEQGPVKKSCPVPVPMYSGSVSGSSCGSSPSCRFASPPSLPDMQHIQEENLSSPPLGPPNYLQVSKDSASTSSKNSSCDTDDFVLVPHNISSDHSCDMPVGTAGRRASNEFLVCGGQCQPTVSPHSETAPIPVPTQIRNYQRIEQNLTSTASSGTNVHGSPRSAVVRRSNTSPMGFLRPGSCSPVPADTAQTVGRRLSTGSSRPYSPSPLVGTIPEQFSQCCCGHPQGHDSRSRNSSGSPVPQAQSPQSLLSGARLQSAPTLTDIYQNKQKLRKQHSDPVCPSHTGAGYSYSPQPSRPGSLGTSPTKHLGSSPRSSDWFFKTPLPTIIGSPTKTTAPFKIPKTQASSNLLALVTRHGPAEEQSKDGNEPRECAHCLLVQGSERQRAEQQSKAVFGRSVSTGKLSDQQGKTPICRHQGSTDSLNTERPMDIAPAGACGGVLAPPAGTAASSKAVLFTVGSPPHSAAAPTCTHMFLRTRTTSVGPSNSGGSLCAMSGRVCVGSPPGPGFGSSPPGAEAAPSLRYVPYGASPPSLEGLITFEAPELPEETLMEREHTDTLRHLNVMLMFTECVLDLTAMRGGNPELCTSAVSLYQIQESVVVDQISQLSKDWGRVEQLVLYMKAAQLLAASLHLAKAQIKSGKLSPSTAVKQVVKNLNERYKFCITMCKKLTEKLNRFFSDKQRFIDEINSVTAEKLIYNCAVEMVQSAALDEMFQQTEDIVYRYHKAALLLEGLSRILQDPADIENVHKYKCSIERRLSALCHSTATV
T2 sequence (P33981 whole entry): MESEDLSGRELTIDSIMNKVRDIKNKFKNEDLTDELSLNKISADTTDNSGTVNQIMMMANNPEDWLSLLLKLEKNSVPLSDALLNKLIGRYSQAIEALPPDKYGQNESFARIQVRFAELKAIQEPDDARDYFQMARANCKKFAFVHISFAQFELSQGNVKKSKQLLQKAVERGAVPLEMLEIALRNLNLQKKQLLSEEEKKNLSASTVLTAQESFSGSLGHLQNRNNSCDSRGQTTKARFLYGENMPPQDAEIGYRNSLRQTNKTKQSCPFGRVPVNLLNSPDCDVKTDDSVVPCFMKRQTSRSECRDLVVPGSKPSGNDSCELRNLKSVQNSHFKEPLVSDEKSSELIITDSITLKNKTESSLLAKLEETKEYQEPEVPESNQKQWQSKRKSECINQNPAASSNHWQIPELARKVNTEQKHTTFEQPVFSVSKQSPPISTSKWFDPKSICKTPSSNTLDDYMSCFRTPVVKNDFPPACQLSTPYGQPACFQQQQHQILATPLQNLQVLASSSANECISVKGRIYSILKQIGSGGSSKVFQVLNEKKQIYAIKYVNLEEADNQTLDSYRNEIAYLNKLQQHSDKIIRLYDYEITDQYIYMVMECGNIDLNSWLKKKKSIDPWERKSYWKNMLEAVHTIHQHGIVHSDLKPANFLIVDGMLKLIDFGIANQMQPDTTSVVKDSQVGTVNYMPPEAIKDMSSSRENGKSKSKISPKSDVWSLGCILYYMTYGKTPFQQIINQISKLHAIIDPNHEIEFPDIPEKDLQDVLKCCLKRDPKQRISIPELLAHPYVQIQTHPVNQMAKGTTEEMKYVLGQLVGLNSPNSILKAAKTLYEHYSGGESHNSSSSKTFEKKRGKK

CC(C)N1CCN(c2ccc(Nc3ncc4cc5n(c4n3)C3(CCCCC3)CNC5=O)nc2)CC1.Cl.Cl [G1T38, 2′-((5-(4-isopropylpiperazin-1-yl)pyridin-2-yl)amino)-7′, 8′dihydro-6′Hspiro[cyclohexane1,9′ pyrazino[1′,2′:1,5]pyrrolo[2,3-d]pyrimidin]-6′-one di-hydrochloride]
Kd (ULK2): 5.5 nM | Kd (TTK): 4.2 nM | Kd (SNARK): 0.69 nM | Kd (CDK4/ CyclinD3): 0.05 nM | Kd (CDK4/ CyclinD1): 0.15 nM | Kd (PRKD3): 5 nM | Kd (SLK): 11 nM | Kd (NEK10): 0.18 nM | Kd (PRKD2): 10 nM | Kd (FLT3 (D835V)): 6.5 nM | EC50 (WM2664): 125 nM | EC50 (H69): 2920 nM | EC50 (SupT1): 57 nM | EC50 (Tom1): 232 nM | EC50 (NALM1): > 10000 nM | EC50 (ZR-75-1): 61 nM | EC50 (A2058): 2690 nM | EC50 (BV173): 296 nM | EC50 (Daudi): 784 nM | EC50 (MCF7): 52 nM | EC50 (MV4-11): 23 nM | findings on oral administration [1]: reduction of bone marrow cellularity and lymphocyte depletion | TGI compared to vehicle, combination with erlotinib (H1975 xenograft; 100 mg/kg G1T38 combined with 70 mg/kg erlotinib for 18 days): 80% | resistance during treatment, combination with afatinib (H1975 xenograft; G1T38 50 or 100 mg/kg + afatinib 20 mg/kg, 18 days): did not develop resistance | effect on erlotinib resistance (H1975 xenograft; G1T38 at any dose combined with 70 mg/kg erlotinib): the resistance to the erlotinib was reversed | TGI (H1975 xenograft; 50 mg/kg daily oral): 33.3% | TGI (H1975 xenograft; 100 mg/kg daily oral): 60.7%
